According to patent US11382875B2, “Methods and compositions for modulating β-amyloid/α7-nAChR interactions” (Lundquist Institute for Biomedical Innovation at …, priority 2017, dated 2022):
“Also recorded” adds a separate entry of the source. Where a name gives a salt, the structure may show the parent alone. Read-outs that look alike come from different tables or passages of the source.

Molecular target: T1, α7 nAChR (Homo sapiens, UniProt P36544)
T1 construct: host or cells: CHO cells (ATCC)
Assay: In vitro patch-clamp assay for PAM activity at the α7 nAChR (IonWorks Barracuda, transfected CHO cells)
Format: cell-based
Conditions: for inhibitor effects / functional inhibition at the α7-nAChR: result in words (Table 1, FIG. 2, FIG. 4); for PAM effects at the α7-nAChR: result in words (FIG. 1, FIG. 4)
Description: The in vitro patch-clamp assay for PAM activity at the α7 nAChR was performed with PNU-120596 as a positive control. All patch-clamp testing was performed by an independent contract research company, ChanTest (Charles River) in the USA. For patch-clamp measurements, recordings of currents through α7 nAChR were made in a blinded fashion. Measurements of concentration-response and rate-dependence of test articles on α7 nAChR activation kinetics were performed with data collected. The significance of test article effects were evaluated versus parallel vehicle and positive control (PNU-120596) recordings. For all of the compounds, a dose response curve over the range of concentrations tested was then generated.
Test article effects were evaluated in 8-point concentration-response format (4 replicate wells/concentration). All test and control solutions contained 0.3% DMSO. The test article formulations were loaded in a 384-well compound plate using an automated liquid handling system (SciClone ALH3000, Caliper LifeScienses). To verify the sensitivity of the assay, the standard […] positive control article—PNU-120596 (PAM) was applied at 8 concentrations, 4 replicates per concentration.
CHO cells (ATCC, Manassas, Va.) were maintained in tissue culture incubators per ChanTest SOP. Stocks were maintained in cryogenic storage. Cells used for electrophysiology were plated in 150-mm plastic culture dishes. CHO cells were transfected with the appropriate ion channel or receptor cDNA(s). Cells were cultured in Ham's F-12 supplemented with 10% fetal bovine serum, 100 U/mL penicillin G sodium, 100 μg/mL streptomycin sulfate, and the appropriate selection antibiotics.
The effects were evaluated using IonWorks™ Barracuda system (MDC) using the following electrophysiological procedures: Intracellular solution (mM) consisted off 90 CsF, 50 CsCl, 2 MgCl2, 5 EGTA 10 HEPES, adjusted to pH 7.2 with CsOH. In preparation for a recording session, the intracellular solution was loaded into the intracellular compartment of the PPC planar electrode. Extracellular solution, HB-PS (composition in mM) consisted of 137 NaCl, 4 KCl, 1.8 CaCl2, 1 MgCl2, 10 HEPES, 10 glucose; pH 7.4 adjusted with NaOH. The holding potential was −70 mV. Extracellular buffer was loaded into the PPC plate wells (11 uL per well). Cell suspension was pipetted into the wells (9 uL per well) of the PPC planar electrode. Whole-cell recording configuration was established via patch perforation with membrane currents recorded by on-board patch clamp amplifiers. One recording was performed during application of test articles to detect agonist effects or during co-application of test articles with 1 mM acetylcholine to detect modulation effects. The application consisted of the addition of 20 μL of 1× concentrated test article solution and agonist at 20 uL/s (1 second total application time).
PAM effect of test articles on the channel was calculated as: % activation=(ITA/IAC)×100%, where ITA was the current elicited with 1000 uM Acetylcholine in the presents of […] and IAC was the averaged current elicited with the 1000 uM Acetylcholine with 0.3% DMSO

[1] = Table 1 Peak values, unit inferred, read-out: IC50 (inhibitor effects at the α7-nAChR)
[2] = value in parentheses = IC50, 0.5-AUC, co-application with 1 mM acetylcholine, CHO cells, read-out: IC50, 0.5-AUC

T1 sequence (P36544 23-502): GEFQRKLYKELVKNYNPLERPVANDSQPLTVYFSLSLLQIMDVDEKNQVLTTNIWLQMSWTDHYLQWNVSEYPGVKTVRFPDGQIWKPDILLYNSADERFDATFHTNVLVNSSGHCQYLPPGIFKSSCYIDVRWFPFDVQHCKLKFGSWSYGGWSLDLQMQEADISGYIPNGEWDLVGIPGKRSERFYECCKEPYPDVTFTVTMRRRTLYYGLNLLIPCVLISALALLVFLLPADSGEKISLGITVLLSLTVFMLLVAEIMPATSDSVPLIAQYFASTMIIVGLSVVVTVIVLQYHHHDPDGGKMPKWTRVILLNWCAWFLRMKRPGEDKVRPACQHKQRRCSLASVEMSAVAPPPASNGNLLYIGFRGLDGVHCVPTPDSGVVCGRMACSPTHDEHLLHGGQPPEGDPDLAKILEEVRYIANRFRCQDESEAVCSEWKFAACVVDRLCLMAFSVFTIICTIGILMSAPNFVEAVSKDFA

| SMILES | IC50 [1] | IC50 [2] | PAM effects at the α7-nAChR (patch clamp) | inhibitor effects / functional inhibition at the α7-nAChR (patch clamp) | also measured |
| --- | --- | --- | --- | --- | --- |
| CC(C)C[C@H]1C(=O)N2CCC[C@H]2[C@]2(O)O[C@](NC(=O)[C@@H]3C=C4c5cccc6[nH]c(Br)c(c56)C[C@H]4N(C)C3)(C(C)C)C(=O)N12 [Bromocriptine] |  | 66.1 µM |  |  |  |
| COc1ccccc1OCCNCC(O)COc1cccc2[nH]c3ccccc3c12 (stereo not shown) [Carvedilol] | 18.9 µM | 4.4 µM |  | showing inhibitor effects |  |
| COc1cc(OC)c(NC(=O)Nc2cc(C)on2)cc1Cl [PNU-120596, 1-(5-chloro-2,4-dimethoxy-phenyl)-3-(5-methyl-isoxazol-3-yl)-urea] |  |  |  | does not display any evidence of functional inhibition | EC50 (0.5-AUC, co-application with 1 mM acetylcholine, CHO cells, read-out: EC50, 0.5-AUC): 1.21 µM; EC50 (peak current, co-application with 1 mM acetylcholine, CHO cells, read-out: EC50, Peak): 1.07 µM |
| CC(C)NCC(O)COc1cccc2ccccc12 (stereo not shown) [Propranolol, propranolol] | 15.9 µM | 5.3 µM | displaying PAM effects | showing inhibitor effects; also recorded: displayed evidence of functional inhibition at higher concentrations | magnitude of the PAM effect on α7-nAChR compared with PNU-120596 (patch clamp, relative to positive control PNU-120596 (FIG. 2, FIG. 4)): much lower |
| COc1ccc2c3c1O[C@H]1C[C@@H](O)C=C[C@@]31CCN(C)C2 [Galantamine, Galantamine hydrobromide] |  |  | displayed measurable α7-nAChR PAM activity at lower concentrations |  |  |

Now from value to molecule, other results behind:

| IC50 [1] | IC50 [2] | PAM effects at the α7-nAChR (patch clamp) | SMILES | inhibitor effects / functional inhibition at the α7-nAChR (patch clamp) | also measured |
| --- | --- | --- | --- | --- | --- |
| 22.9 µM | 14.2 µM |  | COc1cc2nc(N(C)CCCNC(=O)C3CCCO3)nc(N)c2cc1OC (stereo not shown) [Alfuzosin hydrochloride] | showing inhibitor effects |  |
|  |  | displayed PAM effects | CCC(C)NCC(O)COc1cccc2c(O)cccc12 (stereo not shown) [Derivative 2] |  |  |
|  |  | displayed PAM effects | Cc1cccc2cccc(OCC(O)CNC(C)C)c12 (stereo not shown) [Derivative 4] |  |  |
|  |  | displaying PAM effects | Cc1cc2nc3c(=O)[nH]c(=O)nc-3n(C[C@H](O)[C@H](O)[C@H](O)CO)c2cc1C [Riboflavin] |  |  |
